Experimental findings from patent US20250171437A1 (Agios Pharmaceuticals,Inc., priority 2022, published 2025) are described below.

As usually defined, the AC50 is the midpoint of the concentration-response curve, whichever way the signal moves.

One experiment addresses T1, human PAH with the R408W mutation (A375 R408W cells) (Homo sapiens, UniProt P00439, R408W).
T1 construct: expressed in transfected cells
T1 sequence (P00439 1-452 R408W): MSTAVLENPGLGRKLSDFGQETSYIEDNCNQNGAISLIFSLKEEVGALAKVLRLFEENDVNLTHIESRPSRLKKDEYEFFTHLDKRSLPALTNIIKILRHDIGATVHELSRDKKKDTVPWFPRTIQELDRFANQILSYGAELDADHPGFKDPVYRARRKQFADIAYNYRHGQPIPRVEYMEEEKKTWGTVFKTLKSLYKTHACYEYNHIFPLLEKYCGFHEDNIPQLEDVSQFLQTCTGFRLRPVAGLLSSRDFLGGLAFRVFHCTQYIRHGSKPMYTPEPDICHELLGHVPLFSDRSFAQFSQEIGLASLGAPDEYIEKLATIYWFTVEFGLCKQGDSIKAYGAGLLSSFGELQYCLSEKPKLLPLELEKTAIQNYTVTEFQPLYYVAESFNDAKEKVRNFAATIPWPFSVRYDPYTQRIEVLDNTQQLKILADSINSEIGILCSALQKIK
As to the kind of experiment: Cell Based Phenylalanine Flux Assay. To be noted: A375 R408W cells; 24 hrs with compound, then 20 μM sepiapterin and 800 μM 13C9,15N-Phenylalanine for 4 hours; 13C-Tyrosine by LC-MS; average where tested multiple times. Put shortly: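 Stable R408W PAH A375 cells: 24 h compound pretreatment in duplicate, then 4 h with 800 μM isotope-labelled Phe and 20 μM sepiapterin. Labelled Tyr output by LC-MS; AC50 averaged where repeated.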
Regarding `CC(C)(F)c1ncc(C(=O)N2CCc3[nH]cnc3[C@H]2c2nc3cc(F)ccc3o2)o1` [Example 13, (S)-(4-(5-fluorobenzo[d]oxazol-2-yl)-6,7-dihydro-1H-imidazo[4,5-c]pyridin-5(4H)-yl)(2-(2-fluoropropan-2-yl)oxazol-5-yl)methanone], the AC50 is no more than 500 nM.
In the case of `Cn1nc(C(F)(F)F)nc1C(=O)N1CCc2[nH]cnc2[C@@H]1c1nc2ccccc2o1` [Example 684, (R)-(4-(benzo[d]oxazol-2-yl)-6,7-dihydro-1H-imidazo[4,5-c]pyridin-5(4H)-yl)(1-methyl-3-(trifluoromethyl)-1H-1,2,4-triazol-5-yl)methanone], the concentration at half-maximal activity (AC50) lay within 1000 to 5000 nM.
Same read-out and setting: for `CC(C)(O)c1nc(C(F)F)c(C(=O)N2CCc3[nH]cnc3[C@@H]2c2nc3cc(F)cc(F)c3o2)o1` [Example 308, (R)-(4-(5,7-difluorobenzo[d]oxazol-2-yl)-6,7-dihydro-1H-imidazo[4,5-c]pyridin-5(4H)-yl)(4-(difluoromethyl)-2-(2-hydroxypropan-2-yl)oxazol-5-yl)methanone] the value was no more than 500 nM; for `COc1cccc2nc([C@H]3c4nc[nH]c4CCN3C(=O)c3ncnn3C)oc12` [Example 776, (R)-(4-(7-methoxybenzo[d]oxazol-2-yl)-6,7-dihydro-1H-imidazo[4,5-c]pyridin-5(4H)-yl)(1-methyl-1H-1,2,4-triazol-5-yl)methanone], 1000 to 5000 nM.
The same measure, in the same setting: as for `CC(C)(O)c1nc(C(F)F)c(C(=O)N2CCc3[nH]cnc3[C@@H]2c2nc3cccc(C(F)(F)F)c3o2)o1` [Example 454, (R)-(4-(difluoromethyl)-2-(2-hydroxypropan-2-yl)oxazol-5-yl)(4-(7-(trifluoromethyl)benzo[d]oxazol-2-yl)-6,7-dihydro-1H-imidazo[4,5-c]pyridin-5(4H)-yl)methanone], the figure is 1000 to 5000 nM; as for `CC(C)(O)c1nc(CF)c(C(=O)N2CCc3[nH]cnc3[C@@H]2c2nc3cc(F)ccc3o2)o1` [Example 212, (R)-(4-(5-fluorobenzo[d]oxazol-2-yl)-6,7-dihydro-1H-imidazo[4,5-c]pyridin-5(4H)-yl)(4-(fluoromethyl)-2-(2-hydroxypropan-2-yl)oxazol-5-yl)methanone], 1000 to 5000 nM.
On the same count and under the same terms, as for `Cc1cccc2oc([C@H]3c4nc[nH]c4CCN3C(=O)c3cnn4cc(N5CCC(O)CC5)ccc34)nc12` [Example 702, (R)-(6-(4-hydroxypiperidin-1-yl)pyrazolo[1,5-a]pyridin-3-yl)(4-(4-methylbenzo[d]oxazol-2-yl)-6,7-dihydro-1H-imidazo[4,5-c]pyridin-5(4H)-yl)methanone], the figure is no less than 5000 nM; as for `Cc1cccc2oc([C@@H]3c4nc[nH]c4CCN3C(=O)c3nnc(-c4ccccn4)o3)nc12` [Example 482, (S)-(4-(4-methylbenzo[d]oxazol-2-yl)-6,7-dihydro-1H-imidazo[4,5-c]pyridin-5(4H)-yl)(5-(pyridin-2-yl)-1,3,4-oxadiazol-2-yl)methanone], no more than 500 nM; as for `O=C(c1nnc(-c2cc(C(F)(F)F)ccn2)o1)N1CCc2[nH]cnc2[C@@H]1c1nc2cc(F)ccc2o1` [Example 121, [(4R)-4-(5-fluoro-1,3-benzoxazol-2-yl)-1,4,6,7-tetrahydroimidazo[4,5-c]pyridin-5-yl]-[5-[4-(trifluoromethyl)-2-pyridyl]-1,3,4-oxadiazol-2-yl]methanone], 1000 to 5000 nM.
Take `Cn1ccc(-c2nnc(C(=O)N3CCc4[nH]cnc4[C@H]3c3nc4ccc(F)cc4o3)o2)n1` [Example 321, (S)-(4-(6-fluorobenzo[d]oxazol-2-yl)-6,7-dihydro-1H-imidazo[4,5-c]pyridin-5(4H)-yl)(5-(1-methyl-1H-pyrazol-3-yl)-1,3,4-oxadiazol-2-yl)methanone]: the AC50 lay within 500 to 1000 nM.
On to `CC(C)(O)c1nc(C(F)F)c(C(=O)N2CCc3[nH]cnc3[C@H]2c2nc3c(F)ccc(F)c3o2)o1` [Example 345, (S)-(4-(4,7-difluorobenzo[d]oxazol-2-yl)-6,7-dihydro-1H-imidazo[4,5-c]pyridin-5(4H)-yl)(4-(difluoromethyl)-2-(2-hydroxypropan-2-yl)oxazol-5-yl)methanone], for which the concentration at half-maximal activity (AC50) is no more than 500 nM.
With `CC(C)(O)c1nc(C(F)F)c(C(=O)N2CCc3[nH]cnc3[C@H]2c2nc3c(F)cccc3o2)o1` [Example 199, (S)-(4-(difluoromethyl)-2-(2-hydroxypropan-2-yl)oxazol-5-yl)(4-(4-fluorobenzo[d]oxazol-2-yl)-6,7-dihydro-1H-imidazo[4,5-c]pyridin-5(4H)-yl)methanone], the half-maximal activity concentration (AC50) is no more than 500 nM.
On to `COc1cc(F)c2oc([C@H]3c4nc[nH]c4CCN3C(=O)c3ocnc3C(F)F)nc2c1` [Example 664, (R)-(4-(difluoromethyl)oxazol-5-yl)(4-(7-fluoro-5-methoxybenzo[d]oxazol-2-yl)-6,7-dihydro-1H-imidazo[4,5-c]pyridin-5(4H)-yl)methanone], for which the AC50 is no more than 500 nM.
As to `O=C(c1nnc(-c2ccccn2)o1)N1CCc2[nH]cnc2[C@@H]1c1nc2c(F)c(F)ccc2o1` [Example 630, (R)-(4-(4,5-difluorobenzo[d]oxazol-2-yl)-6,7-dihydro-1H-imidazo[4,5-c]pyridin-5(4H)-yl)(5-(pyridin-2-yl)-1,3,4-oxadiazol-2-yl)methanone], the AC50 fell in the range of 1000 to 5000 nM.
Same read-out and setting: as for `O=C(c1ocnc1C(F)F)N1CCc2[nH]cnc2[C@@H]1c1nc2ccccc2o1` [Example 468, (R)-(4-(benzo[d]oxazol-2-yl)-6,7-dihydro-1H-imidazo[4,5-c]pyridin-5(4H)-yl)(4-(difluoromethyl)oxazol-5-yl)methanone], the figure is 500 to 1000 nM; as for `O=C(c1nnc(C2CC2)o1)N1CCc2[nH]cnc2[C@@H]1c1nc2cc(F)ccc2o1` [Example 16, (R)-(5-cyclopropyl-1,3,4-oxadiazol-2-yl)(4-(5-fluorobenzo[d]oxazol-2-yl)-6,7-dihydro-1H-imidazo[4,5-c]pyridin-5(4H)-yl)methanone], 1000 to 5000 nM.
The same measure, in the same setting: as for `O=C(CCc1nccs1)N1CCc2[nH]cnc2[C@H]1c1nc2cccc(F)c2o1` [Example 385, 1-[(4S)-4-(7-fluoro-1,3-benzoxazol-2-yl)-1,4,6,7-tetrahydroimidazo[4,5-c]pyridin-5-yl]-3-thiazol-2-yl-propan-1-one], the figure is no more than 500 nM.

Staying with this experiment, now noted: A375 cells expressing R408W PAH; 24 hrs with compound, then 20 μM sepiapterin and 800 μM 13C9,15N-Phenylalanine for 4 hours; 13C-Tyrosine by LC-MS; average where tested multiple times.
`CC(C)(O)Cn1cc(C(=O)N2CCc3[nH]cnc3C2c2nc3cc(F)ccc3o2)cn1` (stereo not shown): the AC50 was no less than 5000 nM.
Take `Nc1cc(C(=O)N2CCc3[nH]cnc3C2c2nc3cc(F)ccc3o2)n(C(F)F)n1` (stereo not shown) [listing 1 of 2 here]: the AC50 was no less than 5000 nM.
Still for that read-out and setting: as for `O=C(c1nncn1C1CC1)N1CCc2[nH]cnc2C1c1nc2ccc(F)cc2o1` (stereo not shown), the figure is 1000 to 5000 nM.
With `CN(C)Cc1nnc(C(=O)N2CCc3[nH]cnc3[C@@H]2c2nc3cc(F)ccc3o2)o1` (single isomer, unassigned), the AC50 was no less than 5000 nM.
The same measure, in the same setting: for `Cc1ncoc1C(=O)N1CC2(CC2)c2[nH]cnc2C1c1nc2cc(F)ccc2o1` (stereo not shown) the value was 1000 to 5000 nM; for `O=C(c1nnc(-c2cnn(C(F)F)c2)o1)N1CCc2[nH]cnc2C1c1nc2cc(F)ccc2o1` (stereo not shown), 1000 to 5000 nM.
Regarding `Nc1cc(C(=O)N2CCc3[nH]cnc3C2c2nc3cc(F)ccc3o2)n(C(F)F)n1` (stereo not shown) [listing 2 of 2 here], the concentration at half-maximal activity (AC50) lay in the range of 1000 to 5000 nM.
As for `CN(C)CCCOc1ccc2c(C(=O)N3CCc4[nH]cnc4C3c3nc4cc(F)ccc4o3)cnn2c1` (stereo not shown), the AC50 is no less than 5000 nM.
